Results from PMC9525273 (Nature Communications, 2022).
“And” between values parts separate entries of the source, which are not always exact repeats. Equal values may be shown once. Read-outs that look alike come from different tables or passages of the source.

Assays:
Assay type in all cases: cell-based, Plasmodium falciparum
NF54^CTL parasites = assay: P. falciparum proliferation assay (72 h, flow cytometry, SYBR Green I/MitoTracker); conditions: for IC50: NF54, NF54CTL
In short: (§1)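 Predominantly ring-stage cultures at 0.3% parasitaemia, 1% haematocrit, in medium with 10% O+ human serum; compound exposure 72 h, DMSO <0.5% (v/v). Live parasites counted by flow cytometry with SYBR Green I and 200 nM MitoTracker Deep Red. IC50/IC90 from linear interpolation of dose-response data.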

NF54^G358S-1 parasites = assay: as above
In short: as §1

[1] = system: isolated Dd2-Polδ P. falciparum trophozoites; assay: [Na+]cyt measurement (SBFI), Na+ dysregulation; parameters: Final [Na+]cyt reached: unit not given here; conditions: for Final [Na+]cyt reached: Dd2-Polδ; for IC50: Plasmodium falciparum
Description: (§2) The ratio of the fluorescence intensity recorded at 340 nm and 380 nm (with an emission wavelength of 515 nm) was converted to [Na^+]cyt using a calibration procedure that entailed suspending parasites in solutions of varying [Na^+] containing ionophores. Fluorescence measurements and calibrations were performed at 37 °C, either with individual 1 mL suspensions using a PerkinElmer LS 50B fluorescence spectrometer (for resting [Na^+]cyt measurements for which the data are shown in Supplementary Fig. 7) or in 96-well plates using a Tecan Infinite M1000 PRO plate reader with i-control (version 1.12) software (all other [Na^+]cyt measurements).

[2] = system: isolated Dd2-Polδ-PfATP4^G358S P. falciparum trophozoites; assay: [Na+]cyt measurement (SBFI), Na+ dysregulation; parameters: Final [Na+]cyt reached: unit not given here
Description: as §2

C[C@H]1Cc2c([nH]c3cc(Cl)c(F)cc23)[C@@]2(N1)C(=O)Nc1ccc(Cl)cc12 [Cipargamin]
FC (IC90) (NF54^CTL parasites; NF54CTL compared to NF54WT): 1.0 fold
IC90 (NF54^CTL parasites; NF54CTL parasites, individual experiments, read-out: IC90 values): 0.0036 µM and 0.0034 µM
IC90 (NF54^CTL parasites; Plasmodium falciparum, NF54, NF54CTL parasites, individual experiments, read-out: IC90 values): 0.0041 µM
IC90 (NF54^CTL parasites; Plasmodium falciparum, NF54, NF54CTL parasites, mean of the experiments, read-out: IC90 values, MEAN): 0.0037 µM
IC50 (NF54^CTL parasites; Plasmodium falciparum, 10% human serum, read-out: IC50 ± SEM): 0.0026 ± 0.0001 µM
IC50 (NF54^CTL parasites; Plasmodium falciparum, MEAN, source data of Fig. 2, read-out: IC50 values, MEAN): 0.00255 µM
IC50 (NF54^G358S-1 parasites; NF54G358S-1, single experiments, source data of Fig. 2 (nM in Supplementary Table 5), read-out: IC50 values): 2030 nM and 1970 nM and 2280 nM
FC (IC50) (NF54^G358S-1 parasites; NF54G358S-1 compared to NF54WT): 768.6 fold
FC (IC90) (NF54^G358S-1 parasites; NF54G358S-1 compared to NF54WT): 910.8 fold
IC90 (NF54^G358S-1 parasites; NF54G358S-1 parasites, individual experiments, read-out: IC90 values): 3.46 µM (2×) and 3.39 µM
IC50 (NF54^G358S-1 parasites; Plasmodium falciparum, NF54, NF54G358S-1, 10% human serum, read-out: IC50 ± SEM): 2030 ± 93.9 nM
IC90 (NF54^G358S-1 parasites; Plasmodium falciparum, NF54, NF54G358S-1, 10% human serum, read-out: IC90 ± SEM): 3.461 ± 0.0307 µM
IC50 (NF54^G358S-1 parasites; Plasmodium falciparum, NF54, NF54G358S-1, MEAN, source data of Fig. 2, read-out: IC50 values, MEAN): 2030 nM
IC50 (NF54^G358S-1 parasites; Plasmodium falciparum, NF54, NF54G358S-1, single experiments, source data of Fig. 2 (nM in Supplementary Table 5), read-out: IC50 values): 1840 nM
IC90 (NF54^G358S-1 parasites; Plasmodium falciparum, NF54, NF54G358S-1 parasites, individual experiments, read-out: IC90 values): 3.54 µM
IC90 (NF54^G358S-1 parasites; Plasmodium falciparum, NF54, NF54G358S-1 parasites, mean of the experiments, read-out: IC90 values, MEAN): 3.46 µM
Final [Na+]cyt reached ([1]; [cipargamin] 0.06 nM, MEAN): 13.0
Final [Na+]cyt reached ([1]; [cipargamin] 0.12 nM, MEAN): 12.3
Final [Na+]cyt reached ([1]; [cipargamin] 0.244 nM, MEAN): 15.5
Final [Na+]cyt reached ([1]; [cipargamin] 0.5 nM, MEAN): 26.2
Final [Na+]cyt reached ([1]; [cipargamin] 1.0 nM, MEAN): 27.3
Final [Na+]cyt reached ([1]; [cipargamin] 2.0 nM, MEAN): 45.7
Final [Na+]cyt reached ([1]; [cipargamin] 3.9 nM, MEAN): 57.4
Final [Na+]cyt reached ([1]; [cipargamin] 7.8 nM, MEAN): 88.5
Final [Na+]cyt reached ([1]; [cipargamin] 15.6 nM, MEAN): 98.7
Final [Na+]cyt reached ([1]; [cipargamin] 31.3 nM, MEAN): 113.1
Final [Na+]cyt reached ([1]; [cipargamin] 62.5 nM, MEAN): 115.1
Final [Na+]cyt reached ([1]; [cipargamin] 62.5 nM, single experiments): 78.0 and 146.2 and 96.4 and 129.7 and 125.5
Final [Na+]cyt reached ([1]; [cipargamin] 250 nM, MEAN): 115.9
Final [Na+]cyt reached ([1]; [cipargamin] 250 nM, single experiments): 94.4 and 105.7 and 130.4 and 132.9
IC50 ([1]; DD2, 1.5 h, pH 7.1, Dd2-Polδ, ~90 min exposure, 37 °C, pH 7.1, mean ± SEM, read-out: IC50 for Na+ dysregulation): 8.4 ± 3 nM
IC50 ([1]; DD2, Dd2-Polδ, MEAN, source data of Table 1 (nM there), read-out: IC50 for Na+ dysregulation, MEAN): 8.38 nM
Final [Na+]cyt reached ([2]; Dd2-Polδ-PfATP4G358S, [cipargamin] 4.9 nM, MEAN): 28.1
Final [Na+]cyt reached ([2]; Dd2-Polδ-PfATP4G358S, [cipargamin] 4.9 nM, single experiments): 19.9 and 30.8 and 33.6
Final [Na+]cyt reached ([2]; Dd2-Polδ-PfATP4G358S, [cipargamin] 9.8 nM, MEAN): 23.6
Final [Na+]cyt reached ([2]; Dd2-Polδ-PfATP4G358S, [cipargamin] 19.5 nM, MEAN): 24.9
Final [Na+]cyt reached ([2]; Dd2-Polδ-PfATP4G358S, [cipargamin] 39.1 nM, MEAN): 26.7
Final [Na+]cyt reached ([2]; Dd2-Polδ-PfATP4G358S, [cipargamin] 78.1 nM, MEAN): 27.0
Final [Na+]cyt reached ([2]; Dd2-Polδ-PfATP4G358S, [cipargamin] 156.3 nM, MEAN): 28.5
Final [Na+]cyt reached ([2]; Dd2-Polδ-PfATP4G358S, [cipargamin] 312.5 nM, MEAN): 31.8
Final [Na+]cyt reached ([2]; Dd2-Polδ-PfATP4G358S, [cipargamin] 625 nM, MEAN): 35.9
Final [Na+]cyt reached ([2]; Dd2-Polδ-PfATP4G358S, [cipargamin] 2500 nM, MEAN): 55.3
Final [Na+]cyt reached ([2]; Dd2-Polδ-PfATP4G358S, [cipargamin] 5000 nM, MEAN): 78.8
Final [Na+]cyt reached ([2]; Dd2-Polδ-PfATP4G358S, [cipargamin] 10000 nM, MEAN): 93.3
IC50 ([2]; Dd2-Polδ-PfATP4G358S, single experiments, source data of Table 1 (nM there), read-out: IC50 for Na+ dysregulation): > 2500 nM and 3420 nM and 2100 nM and 3020 nM
IC50 ([2]; Plasmodium falciparum, DD2, 1.5 h, pH 7.1, Dd2-Polδ-PfATP4G358S, ~90 min exposure, 37 °C, pH 7.1, read-out: IC50 for Na+ dysregulation): > 2000 nM
IC50 ([2]; Plasmodium falciparum, DD2, Dd2-Polδ-PfATP4G358S, MEAN, source data of Table 1 (nM there), read-out: IC50 for Na+ dysregulation, MEAN): > 2000 nM
IC50 ([2]; Plasmodium falciparum, DD2, Dd2-Polδ-PfATP4G358S, single experiments, source data of Table 1 (nM there), read-out: IC50 for Na+ dysregulation): 3540 nM
